Reference: patent US11547681B2, “N-acylethanolamide derivatives and uses thereof” (ELIEM THERAPEUTICS, INC., priority 2016, dated 2023)
Where two headings read alike, the source gives them in different places.

How the values were obtained:
[1] = Summary of half life data (Table A), matrix not stated; assay type: in vitro ADME
[2] = rat, in vivo
Method: PEA was also dosed intravenously at 1 mg/kg. Blood samples were collected up to 8 hours post-dose, and PEA and PEA-prodrug plasma concentrations were determined with a qualified LC-MS/MS method. Pharmacokinetic analysis was conducted by a non-compartmental model using Phoenix WinNonlin v.6.4 software.
The IV dosing solution was prepared fresh on the day of dosing at 0.5 mg/mL in a vehicle comprised of 10% solutol HS15, 10% n-methylpyrrolidone (NMP), 10% polyethylene glycol 400 (PEG400), and 70% water. For PO dosing, torpac capsules were loaded with an appropriate amount of PEA, PEA-prodrug, or normast powder. […] The prodrug dose in group 5 was the maximum amount of powder that would fit into a single capsule.
The pharmacokinetics of PEA and the PEA-prodrug were evaluated in fasted male Sprague-Dawley rats. Rats were housed one per cage. Each rat was fitted with a jugular vein cannula (JVC) for blood collection. Rats intended for IV dosing were fitted with an additional JVC for dosing. Each study group was dosing in triplicate. Rats were fasted for a minimum of twelve hours prior to dosing. Food was returned at four hours post dosing. Animals had free access to water throughout the study.
Blood samples (˜300 μL) were collected from the rats via a JVC and placed into chilled polypropylene tubes containing sodium heparin as an anticoagulant, and 30 μL of 0.5 M citric acid. Samples were maintained chilled throughout processing. Blood samples were centrifuged at 4° C. and 3,000 g for 5 minutes. Plasma (˜150 μL) was then transferred to a chilled, labeled polypropylene tube containing 15 μL of 10% formic acid, placed on dry ice, and stored in a freezer maintained at −60° C. to −80° C.
Pharmacokinetic parameters were determined with Phoenix WinNonlin (v6.4) software using a non-compartmental model. Maximum plasma concentrations (C0) after IV dosing were estimated by extrapolation of the first two time points back to t=0. […] Area under the time concentration curve (AUC) was calculated using the linear trapezoidal rule with calculation to the last quantifiable data point, and with extrapolation to infinity if applicable. […] Mean residence time, MRT, was calculated by dividing the area under the moment curve (AUMC) by the AUC. Clearance (CL) was calculated from dose/AUC. Steady-state volume of distribution (Vss) was calculated from CL*MRT (mean residence time). Bioavailability was determined by dividing the individual PO dose normalized AUClast values by the average IV AUClast value. Any samples below the limit of quantitation were treated as zero for pharmacokinetic data analysis.
Measured concentrations of PEA in plasma samples were corrected by subtracting the concentration of PEA measured in the pre-dose samples. […] Any corrected values that were negative are reported as not determined (ND).

[3] = Simulated intestinal fluid (SIF) stability in the presence of various enzymes; assay type: in vitro ADME; conditions: 1 μM
Method: (§1) Studies were carried out in simulated intestinal fluid in the presence of various enzymes. Simulated intestinal fluid was prepared by dissolving 6.8 g of monobasic potassium phosphate in 1.0 L of water. Aliquots of this solution were taken and the pH was adjusted to 6.8. Individual enzymes were then spiked into aliquots for each experiment. A DMSO stock was first prepared for the test article. Aliquots of the DMSO solution were dosed into 700 μL of matrix, which had been pre-warmed to 37° C., at a final test article concentration of 1 μM. […] Samples were stored at 4° C. until the end of the experiment. After the final time point was sampled, the plate was mixed and then centrifuged at 3,000 rpm for 10 minutes. Calibration standards were prepared in matched matrix. […] Analytical conditions are outlined in Appendix 8-1.
as §1, with “10-1.” for “8-1.”
Studies were carried out in simulated intestinal fluid in the presence of various enzymes. Simulated intestinal fluid was prepared by dissolving 6.8 g of monobasic potassium phosphate in 1.0 L of water. Aliquots of this solution were taken and the pH was adjusted to 6.8. Individual enzymes were then spiked into aliquots for each experiment. A DMSO stock was first prepared for test article. Aliquots of the DMSO solution were dosed into 700 μL of matrix, which had been pre-warmed to 37° C., at a final test article concentration of 1 μM. […] Samples were stored at 4° C. until the end of experiment. After final time point was sampled, the plate was mixed and then centrifuged at 3,000 rpm for 10 minutes. Calibration standards were prepared in matched matrix. […] Analytical conditions are outlined in Appendix 13-1.
as §1, with “17-1.” for “8-1.”

[4] = SIF + Carboxypeptidase A, 0 min
[5] = SIF + Carboxypeptidase A, 15 min
[6] = SIF + Carboxypeptidase A, 30 min
[7] = SIF + Carboxypeptidase A, 60 min
[8] = SIF + Carboxypeptidase A, 120 min
[9] = SIF + Carboxypeptidase B, 0 min
[10] = SIF + Carboxypeptidase B, 15 min
[11] = SIF + Carboxypeptidase B, 30 min
[12] = SIF + Carboxypeptidase B, 60 min
[13] = SIF + Carboxypeptidase B, 120 min
[14] = simulated intestinal fluid with carboxypeptidase A, pH 6.8, SIF + Carboxypeptidase A, read-out: Half-life
[15] = simulated intestinal fluid with carboxypeptidase B, pH 6.8, SIF + Carboxypeptidase B, read-out: Half-life
[16] = simulated intestinal fluid with chymotrypsin, pH 6.8, SIF + Chymotrypsin, read-out: Half-life
[17] = simulated intestinal fluid with elastase, pH 6.8, SIF + Elastase, read-out: Half-life
[18] = simulated intestinal fluid with pancreatin, pH 6.8, SIF + Pancreatin, read-out: Half-life
[19] = simulated intestinal fluid with trypsin, pH 6.8, SIF + Trypsin, read-out: Half-life

% Remaining of Initial (n = 1) [3, 4] [%]	% Remaining of Initial (n = 1) [3, 5] [%]	% Remaining of Initial (n = 1) [3, 6] [%]	% Remaining of Initial (n = 1) [3, 7] [%]	% Remaining of Initial (n = 1) [3, 8] [%]	% Remaining of Initial (n = 1) [3, 9] [%]	% Remaining of Initial (n = 1) [3, 10] [%]	% Remaining of Initial (n = 1) [3, 11] [%]	% Remaining of Initial (n = 1) [3, 12] [%]	% Remaining of Initial (n = 1) [3, 13] [%]	% Remaining of Initial (n = 1) ([3]; SIF + Chymotrypsin, 0 min) [%]	% Remaining of Initial (n = 1) ([3]; SIF + Chymotrypsin, 15 min) [%]	% Remaining of Initial (n = 1) ([3]; SIF + Chymotrypsin, 30 min) [%]	% Remaining of Initial (n = 1) ([3]; SIF + Chymotrypsin, 60 min) [%]	% Remaining of Initial (n = 1) ([3]; SIF + Chymotrypsin, 120 min) [%]	% Remaining of Initial (n = 1) ([3]; SIF + Elastase, 0 min) [%]	% Remaining of Initial (n = 1) ([3]; SIF + Elastase, 15 min) [%]	% Remaining of Initial (n = 1) ([3]; SIF + Elastase, 30 min) [%]	% Remaining of Initial (n = 1) ([3]; SIF + Elastase, 60 min) [%]	% Remaining of Initial (n = 1) ([3]; SIF + Elastase, 120 min) [%]	Compound	also measured
100	73	78	42	18	100	68	50	33	9.6	100	84	63	42	21	100	70	50	33	17	CCCCCCCCCCCCCCCC(=O)NCCOC(=O)CCC(=O)OCC(COC(=O)CCC)OC(=O)CCC (stereo not shown) [Compound I-11]	half-life [1]: < 1 min; Bioavailability ([2]; male, Sprague-Dawley, po): 4.5%; % Remaining of Initial (n = 1) ([3]; SIF + Pancreatin, 0 min): 100%; % Remaining of Initial (n = 1) ([3]; SIF + Pancreatin, 15 min): <1.0%; % Remaining of Initial (n = 1) ([3]; SIF + Pancreatin, 30 min): <1.0%; % Remaining of Initial (n = 1) ([3]; SIF + Pancreatin, 60 min): <1.0%; % Remaining of Initial (n = 1) ([3]; SIF + Pancreatin, 120 min): <1.0%; % Remaining of Initial (n = 1) ([3]; SIF + Trypsin, 0 min): 100%; % Remaining of Initial (n = 1) ([3]; SIF + Trypsin, 15 min): 77%; % Remaining of Initial (n = 1) ([3]; SIF + Trypsin, 30 min): 62%; % Remaining of Initial (n = 1) ([3]; SIF + Trypsin, 60 min): 45%; % Remaining of Initial (n = 1) ([3]; SIF + Trypsin, 120 min): 23%; half-life at 1 μM [3, 14]: 53 min; half-life at 1 μM [3, 15]: 34 min; half-life at 1 μM [3, 16]: 50 min; half-life at 1 μM [3, 17]: 37 min; half-life at 1 μM [3, 18]: < 1 min; half-life at 1 μM [3, 19]: 53 min
100	43	15	10	5.5	100	44	14	6.1	4.7	100	45	24	11	7.2	100	49	22	10	6.3	CCCCCCCCCCCCCCCC(=O)NCCOC(=O)CCC(=O)OCC(O)CO (stereo not shown) [Compound I-9]	PEA-prodrug in plasma samples ([2]; po): not detectable; % Remaining of Initial (n = 1) ([3]; SIF + Pancreatin, 0 min): 100%; % Remaining of Initial (n = 1) ([3]; SIF + Pancreatin, 15 min): 35%; % Remaining of Initial (n = 1) ([3]; SIF + Pancreatin, 30 min): 34%; % Remaining of Initial (n = 1) ([3]; SIF + Pancreatin, 60 min): 20%; % Remaining of Initial (n = 1) ([3]; SIF + Pancreatin, 120 min): 13%; % Remaining of Initial (n = 1) ([3]; SIF + Trypsin, 0 min): 100%; % Remaining of Initial (n = 1) ([3]; SIF + Trypsin, 15 min): 67%; % Remaining of Initial (n = 1) ([3]; SIF + Trypsin, 30 min): 49%; % Remaining of Initial (n = 1) ([3]; SIF + Trypsin, 60 min): 22%; % Remaining of Initial (n = 1) ([3]; SIF + Trypsin, 120 min): 12%; half-life at 1 μM [3, 14]: 12 min; half-life at 1 μM [3, 15]: 12 min; half-life at 1 μM [3, 16]: 14 min; half-life at 1 μM [3, 17]: 15 min; half-life at 1 μM [3, 18]: 17 min; half-life at 1 μM [3, 19]: 29 min
100	79	70	56	43	100	75	54	40	17	100	78	70	60	58	100	61	42	30	28	CCCCCCCCCCCCCCCC(=O)NCCOC(=O)CCC [Compound I-2]	% Remaining of Initial (n = 1) ([3]; SIF + Pancreatin, 0 min): 100%; % Remaining of Initial (n = 1) ([3]; SIF + Pancreatin, 15 min): 93%; % Remaining of Initial (n = 1) ([3]; SIF + Pancreatin, 30 min): 91%; % Remaining of Initial (n = 1) ([3]; SIF + Pancreatin, 60 min): 98%; % Remaining of Initial (n = 1) ([3]; SIF + Pancreatin, 120 min): 60%; % Remaining of Initial (n = 1) ([3]; SIF + Trypsin, 0 min): 100%; % Remaining of Initial (n = 1) ([3]; SIF + Trypsin, 15 min): 82%; % Remaining of Initial (n = 1) ([3]; SIF + Trypsin, 30 min): 72%; % Remaining of Initial (n = 1) ([3]; SIF + Trypsin, 60 min): 75%; % Remaining of Initial (n = 1) ([3]; SIF + Trypsin, 120 min): 46%; half-life at 1 μM [3, 14]: 92 min; half-life at 1 μM [3, 15]: 43 min; half-life at 1 μM ([3]; simulated intestinal fluid with chymotrypsin, pH 6.8, SIF + Chymotrypsin, outside the sampled time range, read-out: Half-life, calculated (in parentheses)): 144 min; half-life at 1 μM [3, 16]: > 120 min; half-life at 1 μM [3, 17]: 37 min; half-life at 1 μM ([3]; simulated intestinal fluid with pancreatin, pH 6.8, SIF + Pancreatin, outside the sampled time range, read-out: Half-life, calculated (in parentheses)): 205 min; half-life at 1 μM [3, 18]: > 120 min; half-life at 1 μM ([3]; simulated intestinal fluid with trypsin, pH 6.8, SIF + Trypsin, outside the sampled time range, read-out: Half-life, calculated (in parentheses)): 121 min; half-life at 1 μM [3, 19]: > 120 min
100	84	63	39	15	100	94	62	43	14	100	75	59	37	23	100	103	70	48	35	CC/C=C\C/C=C\C/C=C\C/C=C\C/C=C\CCCC(=O)OCCNC(=O)CCCCCCCCCCCCCCC [Compound I-5]	PEA plasma concentration, 0 (pre-dose) ([2]; male, Sprague-Dawley): 3.66 ng/mL; % Remaining of Initial (n = 1) ([3]; SIF + Pancreatin, 0 min): 100%; % Remaining of Initial (n = 1) ([3]; SIF + Pancreatin, 15 min): 13%; % Remaining of Initial (n = 1) ([3]; SIF + Pancreatin, 30 min): <1.0%; % Remaining of Initial (n = 1) ([3]; SIF + Pancreatin, 60 min): <1.0%; % Remaining of Initial (n = 1) ([3]; SIF + Pancreatin, 120 min): <1.0%; % Remaining of Initial (n = 1) ([3]; SIF + Trypsin, 0 min): 100%; % Remaining of Initial (n = 1) ([3]; SIF + Trypsin, 15 min): 81%; % Remaining of Initial (n = 1) ([3]; SIF + Trypsin, 30 min): 67%; % Remaining of Initial (n = 1) ([3]; SIF + Trypsin, 60 min): 44%; % Remaining of Initial (n = 1) ([3]; SIF + Trypsin, 120 min): 26%; half-life at 1 μM [3, 14]: 44 min; half-life at 1 μM [3, 15]: 45 min; half-life at 1 μM [3, 16]: 47 min; half-life at 1 μM [3, 17]: 65 min; half-life at 1 μM [3, 18]: 5.1 min; half-life at 1 μM [3, 19]: 56 min
